{"source": "patent US5902822A", "about": "“7-methylthiooxomethyl and 7-methylthiodioxomethyl paclitaxels” (Bristol-Myers Squibb Company, priority 1998, dated 1999)", "key": {"[1]": {"system": "HCT116 human colon carcinoma cells", "test": "XTT cytotoxicity assay in HCT116 human colon carcinoma cells", "format": "cell-based", "settings": "read-out: Cytotoxicity Assay IC50 against HCT 116 Human colon tumor cell line", "description": "Cytotoxicity was assessed in HCT116 human colon carcinoma cells by XTT (2,3-bis(2-methoxy-4-nitro-5-sulfophenyl)-5-[(phenylamino)carbonyl]-2H-tetrazolium hydroxide assay (1). Cells were plated at 4000 cells/well in 96 well microtiter plates and 24 hrs later drugs were added and serial diluted. The cells were incubated at 37° C. for 72 hrs at which time the tetrazolium dye, XTT, containing phenazine methosulfate was added. A dehydrogenase enzyme in live cells reduces the XTT to a form that absorbs light at 450 nm which can be quantitated spectrophotometrically. The greater the absorbance the greater the number of live cells. The results are expressed as an IC50 which is the drug concentration required to inhibit cell proliferation (i.e. absorbance at 450 nm) to 50% of that of untreated control cells.\nThe IC50 values for compounds evaluated in this assay are contained in Table I."}, "[2]": {"settings": "cited from earlier work"}, "[3]": {"system": "M109 lung carcinoma", "test": "Mice M109 model, advanced distal site antitumor IV testing", "format": "in vivo, Balb/c×DBA 2 F1 (CDF1) hybrid mice", "settings": "for Maximum Effect T-C days (delay of median time to grow tumor to 1 gm): intravenous, once daily on days 4-8 post-tumor implant, sc tumor", "description": "Mice M109 Model (In-Vivo Activity)\nBalb/c×DBA 2 F1 (CDF1) hybrid mice were implanted subcutaneously (sc) with 0.1 mL of a 2% (w/v) brei of M109 lung carcinoma (as described by William Rose in Evaluation of Madison 109 Lung Carcinoma as a Model for Screening Antitumor Drugs, Cancer Treatment Reports, 65, No. 3-4 (1981)).\nThe test compounds and reference drug, paclitaxel, were administered intravenously to groups of mice; each group received a compound at a different dose level, and three or four different dose levels were evaluated per compound. Mice were treated with compounds intravenously, once daily, on days 4, 5, 6, 7, and 8 post-tumor implant. Mice were followed daily for survival until their death or approximately 60-90 days post-tumor implant whichever occurred first. One group of mice per experiment remained untreated and served as the primary control group; a secondary control group was typically included and received 1/10th the tumor inocula of all the other groups of mice (i.e., 0.1 ml of a 0.2% (w/v) brei of M109 lung carcinoma). Tumors were also measured once or, more often, twice weekly to estimate the tumor weight according to the published procedure (ibid).\nMedian survival times of compound-treated (T) mice were compared to the median survival time of the control (C) mice. The ratio of the two values for each compound-treated group of mice was multiplied by 100 and expressed as a percentage (i.e. % T/C) in the following Table II for representative compounds. Additionally, the difference between the median time for treated groups and that for the control group to grow tumor to 1 gm, expressed as T-C values in days, is also shown in the following table. The greater the T-C value, the greater the delay in primary tumor growth. […] When the difference in the time to grow 1 gm tumors in both primary and secondary control groups is greater than 4 days, that difference becomes the criterion for activity.\nAdvanced Distal Site Antitumor IV Testing of Paclitaxel Derivatives"}, "[4]": {"settings": "HCT-116, XTT, 72 hrs incubation at 37° C."}}, "note": "Where two headings read alike, the source gives them in different places."}
{"smiles": "CC(=O)O[C@H]1C(=O)[C@]2(C)[C@@H](OCS(C)(=O)=O)C[C@H]3OC[C@@]3(OC(C)=O)[C@H]2[C@H](OC(=O)c2ccccc2)[C@]2(O)C[C@H](OC(=O)[C@H](O)[C@@H](NC(=O)c3ccccc3)c3ccccc3)C(C)=C1C2(C)C", "note": "[4 (Example 2)]", "values": [{"measurement": "IC50", "setting": "[1]; [4]", "result": 2.8, "unit": "nM"}]}
{"smiles": "CC(=O)O[C@H]1C(=O)[C@]2(C)[C@@H](OC[S+](C)[O-])C[C@H]3OC[C@@]3(OC(C)=O)[C@H]2[C@H](OC(=O)c2ccccc2)[C@]2(O)C[C@H](OC(=O)[C@H](O)[C@@H](NC(=O)c3ccccc3)c3ccccc3)C(C)=C1C2(C)C", "note": "(some centres unmarked) [2 & 3 (Example 1)]", "values": [{"measurement": "IC50", "setting": "[1]; HCT-116, 72 h", "result": 13, "unit": "nM"}]}
{"smiles": "CC(=O)O[C@H]1C(=O)[C@@]2(C)[C@H]([C@H](OC(=O)c3ccccc3)[C@]3(O)C[C@H](OC(=O)[C@H](O)[C@@H](NC(=O)c4ccccc4)c4ccccc4)C(C)=C1C3(C)C)[C@]1(OC(C)=O)CO[C@@H]1C[C@@H]2O", "note": "[paclitaxel]", "values": [{"measurement": "IC50", "setting": "[1]; [4]", "result": "4.9 to 5.9", "unit": "nM"}, {"measurement": "antitumor activity in in vivo animal models, in words", "setting": "[2]", "result": "excellent antitumor activity"}]}
{"smiles": "CC(=O)O[C@H]1C(=O)[C@]2(C)[C@@H](OC[S+](C)[O-])C[C@H]3OC[C@@]3(OC(C)=O)[C@H]2[C@H](OC(=O)c2ccccc2)[C@]2(O)C[C@H](OC(=O)[C@H](O)[C@@H](NC(=O)c3ccccc3)c3ccccc3)C(C)=C1C2(C)C", "note": "(some centres unmarked)", "values": [{"measurement": "Maximum Effect % T/C (median survival time, treated vs control)", "setting": "[3]; 15 mg/kg", "result": 141, "unit": "%"}, {"measurement": "Maximum Effect % T/C (median survival time, treated vs control)", "setting": "[3]; 25 mg/kg", "result": 129, "unit": "%"}, {"measurement": "Maximum Effect T-C days (delay of median time to grow tumor to 1 gm)", "setting": "[3]; Opt. dose 15 mg/kg/inj", "result": 9.0, "unit": "days"}, {"measurement": "Maximum Effect T-C days (delay of median time to grow tumor to 1 gm)", "setting": "[3]; Opt. dose 25 mg/kg/inj", "result": 10.0, "unit": "days"}]}
